US5866569A, “Naphthalenedione nitric oxide synthase (NOS) inhibitors” (Ontogen Corporation, priority 1997, dated 1999)

Assays:
iNOS = target: T1, iNOS (Mus musculus, UniProt P29477); experiment: Nitric oxide synthase activity assay (Griess reagent), iNOS partially purified from interferon-γ/LPS stimulated RAW 264.7 cells; type: biochemical; conditions: for IC50: 90 minutes at 37° C
T1 construct: iNOS was isolated from interferon-γ and lipopolysaacharide(LPS) stimulated mouse macrophage cells (RAW 264.7 cells); endogenous in cells; host or cells: RAW 264.7 mouse macrophage cells, induced overnight with interferon-γ and LPS; lysate partially purified on ADP sepharose

nNOS = nNOS (Homo sapiens, UniProt P29475); experiment: Nitric oxide synthase activity assay, nNOS; type: biochemical
Sequence of nNOS (P29475 whole entry): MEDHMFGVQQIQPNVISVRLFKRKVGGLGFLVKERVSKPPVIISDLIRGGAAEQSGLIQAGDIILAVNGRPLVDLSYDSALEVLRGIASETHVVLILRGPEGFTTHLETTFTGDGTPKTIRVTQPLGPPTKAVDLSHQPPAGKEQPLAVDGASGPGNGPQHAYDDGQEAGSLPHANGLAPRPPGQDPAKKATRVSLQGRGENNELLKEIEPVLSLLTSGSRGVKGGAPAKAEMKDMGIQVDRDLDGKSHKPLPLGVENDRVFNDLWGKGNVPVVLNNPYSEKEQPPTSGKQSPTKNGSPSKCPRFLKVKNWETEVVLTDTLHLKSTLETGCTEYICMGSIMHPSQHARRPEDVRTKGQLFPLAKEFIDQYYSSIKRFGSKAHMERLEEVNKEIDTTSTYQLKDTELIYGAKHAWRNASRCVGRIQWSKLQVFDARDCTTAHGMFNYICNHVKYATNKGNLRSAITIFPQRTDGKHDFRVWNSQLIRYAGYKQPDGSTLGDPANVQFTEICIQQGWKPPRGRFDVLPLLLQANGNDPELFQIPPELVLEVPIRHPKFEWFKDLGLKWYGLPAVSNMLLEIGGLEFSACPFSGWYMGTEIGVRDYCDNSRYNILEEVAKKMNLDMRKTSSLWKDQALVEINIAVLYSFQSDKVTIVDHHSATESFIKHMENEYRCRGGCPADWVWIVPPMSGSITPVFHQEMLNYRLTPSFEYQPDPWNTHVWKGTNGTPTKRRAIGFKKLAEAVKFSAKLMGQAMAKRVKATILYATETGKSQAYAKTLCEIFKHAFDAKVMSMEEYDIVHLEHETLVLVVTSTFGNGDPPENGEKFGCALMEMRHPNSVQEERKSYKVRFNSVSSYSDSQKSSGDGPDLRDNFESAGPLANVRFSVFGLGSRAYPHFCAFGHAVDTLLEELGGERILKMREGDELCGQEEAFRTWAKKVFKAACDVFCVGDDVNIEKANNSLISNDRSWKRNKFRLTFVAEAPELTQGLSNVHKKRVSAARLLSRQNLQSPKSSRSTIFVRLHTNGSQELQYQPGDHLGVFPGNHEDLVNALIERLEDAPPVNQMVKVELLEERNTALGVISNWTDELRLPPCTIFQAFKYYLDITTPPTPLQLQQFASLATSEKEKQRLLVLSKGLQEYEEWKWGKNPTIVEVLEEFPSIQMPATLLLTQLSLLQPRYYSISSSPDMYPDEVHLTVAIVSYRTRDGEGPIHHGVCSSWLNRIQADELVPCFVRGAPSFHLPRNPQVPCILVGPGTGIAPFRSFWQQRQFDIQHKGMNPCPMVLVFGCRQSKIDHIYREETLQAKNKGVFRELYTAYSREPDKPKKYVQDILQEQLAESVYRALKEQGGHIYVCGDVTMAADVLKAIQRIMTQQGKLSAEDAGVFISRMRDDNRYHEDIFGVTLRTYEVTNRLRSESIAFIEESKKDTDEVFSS

IC50 (iNOS)	IC50 (nNOS)	inhibition at 10 µM (iNOS; @ 10 μM, read-out: Percentage Inhibition iNOS)	SMILES
27 µM			O=C1C=C(Nc2ccccc2)c2ccccc2C1=O [Example 1]
41 µM			O=C1C=C(NCCCn2ccnc2)c2ccccc2C1=O [Example 3]
45 µM			O=C1C=C(NCCN2CCOCC2)c2ccccc2C1=O [Example 4]
12 µM			CC1CCCCN1CCCNC1=CC(=O)C(=O)c2ccccc21 (stereo not shown) [Example 5]
8 µM			CCN1CCN(C2=CC(=O)C(=O)c3ccccc32)CC1 [Example 7]
9.9 µM	2.1 µM		O=C1C=C(N2CCNCC2)c2ccccc2C1=O [Example 12]
7.8 µM			O=C1C=C(n2cncn2)c2ccccc2C1=O [Example 13]
7.4 µM			O=C1C=C(c2ccc[nH]2)c2ccccc2C1=O [Example 14]
3.8 µM	1.1 µM		CC(C)(C)OC(=O)NCCNC1=CC(=O)C(=O)c2ccccc21 [Example 15]
11.2 µM	3.2 µM		NCCNC1=CC(=O)C(=O)c2ccccc21 [Example 16]
0.67 µM	0.57 µM		N=C(N)N1CCN(C2=CC(=O)C(=O)c3ccccc32)CC1 [Example 20]

The next lines start with the compound.

SMILES	IC50 (iNOS)	IC50 (nNOS)	inhibition at 10 µM (iNOS; @ 10 μM, read-out: Percentage Inhibition iNOS)
CCN(C1=CC(=O)C(=O)c2ccccc21)c1ccccc1 [Example 2]	16 µM		
CN1CCN(C2=CC(=O)C(=O)c3ccccc32)CC1 [Example 6]	5.4 µM	2 µM	
O=C1C=C(N2CCCc3ccccc32)c2ccccc2C1=O [Example 8]	13 µM		
O=C1C=C(N2CCc3ccccc32)c2ccccc2C1=O [Example 9]	17 µM		
COC(=O)[C@@H]1CCCN1C1=CC(=O)C(=O)c2ccccc21 [Example 10]	44 µM		
O=C1C=C(N2CCNCC2)c2cc(O)ccc2C1=O [Example 11]			34%
CC(=O)N1CCN(C2=CC(=O)C(=O)c3ccccc32)CC1 [Example 17]	5.4 µM		
O=C1C=C(N2CCN(C(=O)c3ccc([N+](=O)[O-])cc3)CC2)c2ccccc2C1=O [Example 18]	6.2 µM	1.2 µM	
O=C1C=C(N2CCN(C(=O)NCc3ccccc3)CC2)c2ccccc2C1=O [Example 19]	2.2 µM	2.1 µM	
COC(=O)[C@H](CCC(=O)N1CCN(C2=CC(=O)C(=O)c3ccccc32)CC1)NC(=O)OCC1c2ccccc2-c2ccccc21 [Example 21]	15.6 µM	1.9 µM	
O=C1C(=O)c2c(nc3ccccn23)-c2ccccc21 [Example 24]	2.3 µM	0.27 µM	
